This note sets out measurements from patent publication US5952321A, “Substituted azetidinones as anti-inflammatory and antidegenerative agents” (Merck & Co., Inc., priority 1996, dated 1999).

The structures appear in SMILES notation.

In the first assay the target is T1, HUMAN PROTEINASE 3 (Homo sapiens, UniProt P24158).
T1 sequence (P24158 28-256): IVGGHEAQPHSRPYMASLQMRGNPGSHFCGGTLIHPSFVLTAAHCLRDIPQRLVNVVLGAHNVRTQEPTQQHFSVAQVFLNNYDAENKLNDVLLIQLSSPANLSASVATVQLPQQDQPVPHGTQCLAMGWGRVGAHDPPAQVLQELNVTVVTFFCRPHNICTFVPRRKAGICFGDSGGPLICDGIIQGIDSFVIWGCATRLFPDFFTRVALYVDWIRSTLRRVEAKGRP
The experiment in a line: Inhibition of PR3 catalyzed hydrolysis of MeO-Succ-AAPV-pNA. The assay is classed as biochemical. As to conditions: Table IV; 45 mM TES pH 7.5, 450 mM NaCl, 10% DMSO; 0.2 mM MeO-succ-AAPV-pNA; read-out: SORC (second order rate constant, kobs /I). On the procedure: The PR3 catalyzed hydrolysis of MeO-Succ-AAPV-pNA was measured in a spectrophotometer monitoring absorbance at 410 nm. The enzymatic activity was determined in 45 mM TES at pH 7.5, 450 mM NaCl and 10% DMSO. The data were fit by non-linear regression to equation 1 to obtain the initial rates. The nonlinear progress curves observed with time dependent inhibitors were fit to equation 2 to obtain the first order rate constant Kobs. Results were expressed as kobs /I which is the second order rate constant (SORC) in per mole per second for inactivation of the enzyme.
Y=vs *x+[(vo -vs) (1-e^(-K.spsb.o^*x))/Ko
Kinetic constants for the inhibition of PR3 catalyzed hydrolysis of 0.2 mM MeO-succ-AAPV-pNA were determined by varying the concentration of inhibitor present in the reaction vessel.
As to `CCC[C@@H](NC(=O)N1C(=O)C(CC)(CC)[C@@H]1Oc1ccc(C(C)N(C)CCOC)cc1)c1ccc2c(c1)OCO2` (stereo partly shown), the kinact/KI was 31000 M⁻¹ s⁻¹.

A further assay addresses T2, Human Polymorphonuclear Leukocyte Elastase (Homo sapiens, UniProt P08246).
T2 sequence (P08246 30-267): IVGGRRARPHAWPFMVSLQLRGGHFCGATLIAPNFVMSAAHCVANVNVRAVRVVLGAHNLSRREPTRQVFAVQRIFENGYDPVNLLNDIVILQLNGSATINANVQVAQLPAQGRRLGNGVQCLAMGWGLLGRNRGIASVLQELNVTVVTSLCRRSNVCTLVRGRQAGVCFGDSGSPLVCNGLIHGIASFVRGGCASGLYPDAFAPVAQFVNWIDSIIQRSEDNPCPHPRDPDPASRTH
The experiment in a line: Inhibition of human polymorphonuclear leukocyte elastase via hydrolysis of Boc-AAPAN or Boc-AAPVN. Type of assay: biochemical. To be noted: pH 7.5, Table I; second order rate constant for inactivation of the enzyme; read-out: Kobs /[I]. The procedure, abridged:
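Crude human PMN extract was added to 0.2 mM Boc-AAPAN or Boc-AAPVN substrate solution in 0.05 M TES pH 7.5 containing inhibitor in DMSO; extract volume was adjusted per batch activity. Hydrolysis was followed as ΔOD/min at 410 mμ, after a pre-check for spontaneous hydrolysis. Values are ID50 (μg/ml, 50% inhibition at 2 min), Ki (μM) or kobs/I.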
For the compound `CCC[C@@H](NC(=O)N1C(=O)C(CC)(CC)[C@@H]1Oc1ccc(CN(C)CC[S+]([O-])CC)cc1)c1ccc(C)cc1` (stereo partly drawn) [R4=Me; R5=CH2 CH2 SOEt; R6=H, (4S)-3,3-Diethyl-1-[(R)-α-n-propyl-(4-methyl)benzylaminocarbonyl]-4-[(4-((2-thioethyl)ethyl)methylaminomethyl)phenoxy]azetidin-2-one, S-oxide], the kinact/KI is 1.4e+06 M⁻¹ s⁻¹. With `CCC[C@@H](NC(=O)N1C(=O)C(CC)(CC)[C@@H]1Oc1ccc(CN(C)CC2CCCO2)cc1)c1ccc(C)cc1` (stereo partly shown) [R4=Me; R5=CH2 CH(CH2 CH2 CH2 O); R6=H], the kinact/KI was 1e+06 M⁻¹ s⁻¹. For `CCC[C@@H](NC(=O)N1C(=O)C(CC)(CC)[C@@H]1Oc1ccc(CN(C)CC(=O)N(CCC)CCC)cc1)c1ccc(C)cc1` [R4=Me; R5=CH2 CON(n-Pr)2; R6=H], the kinact/KI amounted to 910000 M⁻¹ s⁻¹.

As to `CCC[C@@H](NC(=O)N1C(=O)C(CC)(CC)[C@@H]1Oc1ccc(CN(C)C(C)COC)cc1)c1ccc(C)cc1` (stereo partly shown) [R4=Me; R5=CH(Me)CH2 OMe; R6=H], the kinact/KI was determined as 1.22e+06 M⁻¹ s⁻¹.

As for `CCC[C@@H](NC(=O)N1C(=O)C(CC)(CC)[C@@H]1Oc1ccc(CN(C)C)cc1)c1ccc(C)cc1` [R4=Me; R5=Me; R6=H], the kinact/KI came to 560000 M⁻¹ s⁻¹.

For `CCC[C@@H](NC(=O)N1C(=O)C(CC)(CC)[C@@H]1Oc1ccc(C(COC)N(C)C(C)C)cc1)c1ccc(C)cc1` (stereo partly shown) [R4=Me; R5=i-Pr; R6=CH2 OMe], the kinact/KI came to 800000 M⁻¹ s⁻¹. Still for that read-out and setting: with `CCC[C@@H](NC(=O)N1C(=O)C(CC)(CC)[C@@H]1Oc1ccc(CN(C)C(C)C)cc1)c1ccc(C)cc1` [R4=Me; R5=i-Pr; R6=H] the figure was 850000 M⁻¹ s⁻¹.

Regarding `CCC[C@@H](NC(=O)N1C(=O)C(CC)(CC)[C@@H]1Oc1ccc(CN(CCOC)C(C)C)cc1)c1ccc(C)cc1` [R4=i-Pr; R5=CH2 CH2 OMe; R6=H], the kinact/KI worked out at 500000 M⁻¹ s⁻¹. On the same count and under the same terms, with `CCC[C@@H](NC(=O)N1C(=O)C(CC)(CC)[C@@H]1Oc1ccc(C(COC)N(CCC)CCC)cc1)c1ccc(C)cc1` (stereo partly drawn) [R4=n-Pr; R5=n-Pr; R6=CH2 OMe, 3,3-Diethyl-1-[(R)-α-(n-propyl)-4-(methyl)benzylaminocarbonyl]-4-(S)-[4-{1-(RS)-(di-n-propyl)-2-methoxyethyl}phenoxy]azetidin-2-one] the figure was 1e+06 M⁻¹ s⁻¹.

The assay is the same for the next values; noted with them: pH 7.5, Table II; second order rate constant for inactivation of the enzyme; read-out: Kobs /[I].
As for `CCC[C@@H](NC(=O)N1C(=O)C(CC)(CC)[C@@H]1Oc1ccc(CCN(C)C)cc1)c1ccc(C)cc1` [R4=Me; R5=Me; n=2, (4S)-3,3-Diethyl-1-[(R)-α-n-propyl-(4-methyl)benzylaminocarbonyl]-4-[(4-(2-dimethylamino)ethyl)phenoxy]azetidin-2-one], the kinact/KI came out at 1.13e+06 M⁻¹ s⁻¹. Same read-out and setting: the figure for `CCC[C@@H](NC(=O)N1C(=O)C(CC)(CC)[C@@H]1Oc1ccc(CCCCN(C)C)cc1)c1ccc(C)cc1` [R4=Me; R5=Me; n=4] is 525000 M⁻¹ s⁻¹.

Staying with this assay, now noted: pH 7.5, Table III; second order rate constant for inactivation of the enzyme; read-out: Kobs /[I].
As to `CCC[C@@H](NC(=O)N1C(=O)C(CC)(CC)[C@@H]1Oc1ccc(C(C)N(C)CCOC)cc1)c1ccc2c(c1)OCO2` (stereo partly shown), the kinact/KI was 1.3e+06 M⁻¹ s⁻¹.
